Data taken from patent US20240307382A1, “MODULATORS OF THE INTEGRATED STRESS PATHWAY” (Calico Life Sciences LLC, priority 2017, published 2024).

system: HEK293T cells carrying the ATF4 luciferase reporter; assay: ATF4-Luc assay (ATF4 luciferase reporter, tunicamycin-treated cells); type: cell-based; conditions: Homo sapiens, HEK-293T, 1 μg/mL tunicamycin, 7 hours
How it was run: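 A stable HEK293T reporter line was made by placing the full-length human ATF4 5′-UTR ahead of a firefly luciferase sequence without its start methionine, delivered by retroviral transduction and puromycin selection. Cells were seeded at 30,000 per well in polylysine-coated 384-well plates, exposed next day to 1 μg/mL tunicamycin plus compound for 7 hours, and luminescence was read with One Glo.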

Question: How did the EC50 turn out when `Cc1cnc(C(=O)NC23CC(NC(=O)c4cnc(-c5ccccc5)o4)(C2)C3)cn1` [Compound 1056, 5-methyl-N-{3-[(2-phenyl-1,3-oxazole-5-carbonyl)amino]bicyclo[1.1.1]pentan-1-yl}pyrazine-2-carboxamide] was run?
Answer: 250 to 1000 nM

Question: Which EC50 does the source give for `O=C(NC12CC(NC(=O)c3cnc(-c4ccccc4)o3)(C1)C2)c1cnc(-c2ccccc2)o1` [Compound 1057, N,N′-(bicyclo[1.1.1]pentane-1,3-diyl)bis(2-phenyl-1,3-oxazole-5-carboxamide)] here?
Answer: < 50 nM

Question: With `O=C(NC12CC(NC(=O)c3cnc(-c4ccccc4)o3)(C1)C2)c1cnc(C(F)F)cn1` [Compound 1058, 5-(difluoromethyl)-N-{3-[(2-phenyl-1,3-oxazole-5-carbonyl)amino]bicyclo[1.1.1]pentan-1-yl}pyrazine-2-carboxamide] as the molecule, how does the EC50 read?
Answer: 50 to 250 nM

Question: Which EC50 does the source give for `O=C(CO)Nc1cc(F)c(F)cc1C(=O)NC12CC(NC(=O)COc3ccc(Cl)c(F)c3)(C1)C2` [Compound 1059, N-{3-[2-(4-chloro-3-fluorophenoxy)acetamido]bicyclo[1.1.1]pentan-1-yl}-4,5-difluoro-2-(2-hydroxyacetamido)benzamide] here?
Answer: 50 to 250 nM

Question: How did the EC50 turn out when `O=C(COc1ccc(Cl)c(F)c1)NC12CC(NC(=O)c3cc(F)c(F)cc3NCCO)(C1)C2` [Compound 1060, N-{3-[2-(4-chloro-3-fluorophenoxy)acetamido]bicyclo[1.1.1]pentan-1-yl}-4,5-difluoro-2-[(2-hydroxyethyl)amino]benzamide] was run?
Answer: 250 to 1000 nM

Question: For `COCC(=O)Nc1cc(F)c(F)cc1C(=O)NC12CC(NC(=O)COc3ccc(Cl)c(F)c3)(C1)C2` [Compound 1061, N-{3-[2-(4-chloro-3-fluorophenoxy)acetamido]bicyclo[1.1.1]pentan-1-yl}-4,5-difluoro-2-(2-methoxyacetamido)benzamide], which EC50 is on record?
Answer: 250 to 1000 nM

Question: For `Cc1nc(C(=O)NC23CCC(NC(=O)COc4ccc(Cl)c(F)c4)(CC2)[C@H](O)C3)n[nH]1` [Compound 1062, N-{(3R)-4-[2-(4-chloro-3-fluorophenoxy)acetamido]-3-hydroxybicyclo[2.2.2]octan-1-yl}-5-methyl-1H-1,2,4-triazole-3-carboxamide], which EC50 is on record?
Answer: 250 to 1000 nM

Question: `Cc1csc(C(=O)NC23CCC(NC(=O)COc4ccc(F)c(Cl)c4)(CC2)[C@@H](O)C3)n1` [Compound 1063, N-{(3S)-4-[2-(3-chloro-4-fluorophenoxy)acetamido]-3-hydroxybicyclo[2.2.2]octan-1-yl}-4-methyl-1,3-thiazole-2-carboxamide] was tested. Which EC50 did it give?
Answer: 250 to 1000 nM

Question: Which EC50 does the source give for `Cc1csc(C(=O)NC23CCC(NC(=O)COc4ccc(Cl)cc4)(CC2)[C@@H](O)C3)n1` [Compound 1064, N-{(3S)-4-[2-(4-chlorophenoxy)acetamido]-3-hydroxybicyclo[2.2.2]octan-1-yl}-4-methyl-1,3-thiazole-2-carboxamide] here?
Answer: 250 to 1000 nM

Question: How did the EC50 turn out when `Cc1csc(C(=O)NC23CCC(NC(=O)COc4ccc(Cl)c(F)c4)(CC2)[C@@H](O)C3)n1` [Compound 1065, N-{(3S)-4-[2-(4-chloro-3-fluorophenoxy)acetamido]-3-hydroxybicyclo[2.2.2]octan-1-yl}-4-methyl-1,3-thiazole-2-carboxamide] was run?
Answer: < 50 nM

Question: How did the EC50 turn out when `O=C(COc1ccc(Cl)c(F)c1)NC12CCC(NC(=O)c3ccn(-c4ccc(Cl)c(Cl)c4)n3)(CC1)[C@@H](O)C2` [Compound 1066, N-{(2S)-4-[2-(4-chloro-3-fluorophenoxy)acetamido]-2-hydroxybicyclo[2.2.2]octan-1-yl}-1-(3,4-dichlorophenyl)-1H-pyrazole-3-carboxamide] was run?
Answer: < 50 nM

Question: For `Cc1nc(C(=O)NC23CC(NC(=O)COc4ccc(Cl)c(F)c4)(C2)C3)n(C)n1` [Compound 1067, N-{3-[2-(4-chloro-3-fluorophenoxy)acetamido]bicyclo[1.1.1]pentan-1-yl}-1,3-dimethyl-1H-1,2,4-triazole-5-carboxamide], which EC50 is on record?
Answer: 50 to 250 nM

Question: How did the EC50 turn out when `O=C(COc1ccc(Cl)c(F)c1)NC12CCC(NC(=O)c3n[nH]c(-c4ccc(Cl)cc4)n3)(CC1)C[C@@H]2O` [Compound 1068, N-{(3S)-4-[2-(4-chloro-3-fluorophenoxy)acetamido]-3-hydroxybicyclo[2.2.2]octan-1-yl}-5-(4-chlorophenyl)-1H-1,2,4-triazole-3-carboxamide] was run?
Answer: > 2000 nM

Question: `COc1ncc(OCC(=O)NC23CCC(NC(=O)c4cc(C(F)F)no4)(CC2)C[C@@H]3O)cn1` [Compound 1069, 3-(difluoromethyl)-N-[(3S)-3-hydroxy-4-{2-[(2-methoxypyrimidin-5-yl)oxy]acetamido}bicyclo[2.2.2]octan-1-yl]-1,2-oxazole-5-carboxamide] was tested. Which EC50 did it give?
Answer: 1000 to 2000 nM

Question: `O=C(COc1cccc(F)c1)NC12CCC(NC(=O)c3cc(C(F)F)no3)(CC1)C[C@@H]2O` [Compound 1070, 3-(difluoromethyl)-N-{(3S)-4-[2-(3-fluorophenoxy)acetamido]-3-hydroxybicyclo[2.2.2]octan-1-yl}-1,2-oxazole-5-carboxamide] was tested. Which EC50 did it give?
Answer: 50 to 250 nM

Question: Which EC50 does the source give for `O=C(COc1ccccn1)NC12CCC(NC(=O)c3cc(C(F)F)no3)(CC1)C[C@@H]2O` [Compound 1071, 3-(difluoromethyl)-N-[(3S)-3-hydroxy-4-{2-[(pyridin-2-yl)oxy]acetamido}bicyclo[2.2.2]octan-1-yl]-1,2-oxazole-5-carboxamide] here?
Answer: > 2000 nM

Question: Which EC50 does the source give for `O=C(COc1cccc(Cl)c1)NC12CCC(NC(=O)c3cc(C(F)F)no3)(CC1)C[C@@H]2O` [Compound 1072, N-{(3S)-4-[2-(3-chlorophenoxy)acetamido]-3-hydroxybicyclo[2.2.2]octan-1-yl}-3-(difluoromethyl)-1,2-oxazole-5-carboxamide] here?
Answer: 50 to 250 nM

Question: For `COc1ncc(C(=O)NC23CCC(NC(=O)COc4ccc(Cl)c(F)c4)(CC2)[C@@H](O)C3)cn1` [Compound 1073, N-{(3S)-4-[2-(4-chloro-3-fluorophenoxy)acetamido]-3-hydroxybicyclo[2.2.2]octan-1-yl}-2-methoxypyrimidine-5-carboxamide], which EC50 is on record?
Answer: 50 to 250 nM

Question: `COc1ncc(C(=O)NC23CCC(NC(=O)COc4ccc(C(F)(F)F)c(F)c4)(CC2)[C@@H](O)C3)cn1` [Compound 1074, N-[(3S)-4-{2-[3-fluoro-4-(trifluoromethyl)phenoxy]acetamido}-3-hydroxybicyclo[2.2.2]octan-1-yl]-2-methoxypyrimidine-5-carboxamide] was tested. Which EC50 did it give?
Answer: 50 to 250 nM

Question: How did the EC50 turn out when `O=C(COc1ccc(Cl)c(F)c1)NC12CCC(NC(=O)c3nc4cc(F)c(F)cc4o3)(CC1)C[C@@H]2O` [Compound 1075, N-{(3S)-4-[2-(4-chloro-3-fluorophenoxy)acetamido]-3-hydroxybicyclo[2.2.2]octan-1-yl}-5,6-difluoro-1,3-benzoxazole-2-carboxamide] was run?
Answer: < 50 nM

Question: For `O=C(COc1ccc(C(F)(F)F)nc1)NC12CCC(NC(=O)c3cc4cc(Cl)ccc4o3)(CC1)C[C@@H]2O` [Compound 1076, 5-chloro-N-[(3S)-3-hydroxy-4-(2-{[6-(trifluoromethyl)pyridin-3-yl]oxy}acetamido)bicyclo[2.2.2]octan-1-yl]-1-benzofuran-2-carboxamide], which EC50 is on record?
Answer: 50 to 250 nM

Question: `O=C(COc1ccc(Cl)c(F)c1)NC12CCC(NC(=O)c3cc4cc(Cl)ccc4o3)(CC1)C[C@@H]2O` [Compound 1077, 5-chloro-N-{(3S)-4-[2-(4-chloro-3-fluorophenoxy)acetamido]-3-hydroxybicyclo[2.2.2]octan-1-yl}-1-benzofuran-2-carboxamide] was tested. Which EC50 did it give?
Answer: < 50 nM

Question: With `O=C(CCOc1ccc(Cl)c(F)c1)NC12CCC(NC(=O)c3cc(C(F)F)no3)(CC1)C[C@@H]2O` [Compound 1078, N-{(3S)-4-[3-(4-chloro-3-fluorophenoxy)propanamido]-3-hydroxybicyclo[2.2.2]octan-1-yl}-3-(difluoromethyl)-1,2-oxazole-5-carboxamide] as the molecule, how does the EC50 read?
Answer: 250 to 1000 nM

Question: `O=C(CCOc1ccc(Cl)c(F)c1)NC12CC(NC(=O)c3ccc(OC(F)(F)F)cn3)(C1)C2` [Compound 1079, N-{3-[3-(4-chloro-3-fluorophenoxy)propanamido]bicyclo[1.1.1]pentan-1-yl}-5-(trifluoromethoxy)pyridine-2-carboxamide] was tested. Which EC50 did it give?
Answer: > 2000 nM

Question: `O=C(COc1cc(F)c2cn[nH]c2c1)NC12CCC(NC(=O)c3cnc(C(F)F)cn3)(CC1)[C@@H](O)C2` [Compound 1080, 5-(difluoromethyl)-N-[(2S)-4-{2-[(4-fluoro-1H-indazol-6-yl)oxy]acetamido}-2-hydroxybicyclo[2.2.2]octan-1-yl]pyrazine-2-carboxamide] was tested. Which EC50 did it give?
Answer: 50 to 250 nM

Question: Which EC50 does the source give for `Cc1onc(C(=O)NC23CC(NC(=O)COc4ccc(Cl)c(F)c4)(C2)C3)c1C(=O)Nc1ncc(C(F)(F)F)cc1Cl` [Compound 1081, N^3-{3-[2-(4-chloro-3-fluorophenoxy)acetamido]bicyclo[1.1.1]pentan-1-yl}-N^4-[3-chloro-5-(trifluoromethyl)pyridin-2-yl]-5-methyl-1,2-oxazole-3,4-dicarboxamide] here?
Answer: > 2000 nM

Question: For `O=C(COc1ccc(Cl)c(F)c1)NC12CCC(NC(=O)c3ccc4c(n3)CCCC4)(CC1)[C@@H](O)C2` [Compound 1082, N-{(2S)-4-[2-(4-chloro-3-fluorophenoxy)acetamido]-2-hydroxybicyclo[2.2.2]octan-1-yl}-5,6,7,8-tetrahydroquinoline-2-carboxamide], which EC50 is on record?
Answer: < 50 nM

Question: Which EC50 does the source give for `O=C(COc1ccc(OC(F)(F)F)cc1)NC12CCC(NC(=O)c3ccc(Cl)c(F)c3)(CC1)[C@@H](O)C2` [Compound 1083, 4-chloro-3-fluoro-N-[(2S)-2-hydroxy-4-{2-[4-(trifluoromethoxy)phenoxy]acetamido}bicyclo[2.2.2]octan-1-yl]benzamide] here?
Answer: > 2000 nM

Question: For `O=C(COc1ccc(Cl)c(F)c1)NC12CC(NC(=O)c3cncc(CO)n3)(C1)C2` [Compound 1084, N-{3-[2-(4-chloro-3-fluorophenoxy)acetamido]bicyclo[1.1.1]pentan-1-yl}-6-(hydroxymethyl)pyrazine-2-carboxamide], which EC50 is on record?
Answer: 1000 to 2000 nM

Question: Which EC50 does the source give for `O=C(COc1ccc(Cl)c(F)c1)NC12CC(NC(=O)c3cc(F)cc4c3OCOC4)(C1)C2` [Compound 1085, N-{3-[2-(4-chloro-3-fluorophenoxy)acetamido]bicyclo[1.1.1]pentan-1-yl}-6-fluoro-2H,4H-1,3-benzodioxine-8-carboxamide] here?
Answer: 1000 to 2000 nM
